Laboratory results from patent US12227512B2, “Benzimidazoles and methods of using same” (priority 2019, dated 2025).

Tests used:
[1] = Mouse PK evaluation, plasma, IV; details: CD-1 mice; for concentration at 0.083 h / concentration at 0.25 h / concentration at 0.5 h / concentration at 1 h / concentration at 2 h / concentration at 4 h / concentration at 8 h / concentration at 24 h / AUC(0-inf) / AUC(0-t) / MRT inf / half-life: CD-1, mouse, plasma, 3 mg/kg; for concentration at 0.083 h / concentration at 0.25 h / concentration at 0.5 h / concentration at 1 h / concentration at 2 h / concentration at 4 h / concentration at 8 h / concentration at 24 h: intravenous, Plasma concentration; for AUC(0-inf) / AUC(0-t) / MRT inf / half-life: iv; for AUC(0-inf): AUCInf; for AUC(0-t): AUClast; for MRT inf: MRTInf_obs
[2] = Neutral Red (Toxicity) of the antiviral screening; details: human, Huh7 cells
[3] = Neutral Red (Toxicity) of the antiviral screening; details: African green monkey, Vero 76 cells
Vero 76 = assay: Neutral Red (Toxicity) of the antiviral screening; details: Assay No. 3; Neutral Red (Cytopathic effect/Toxicity) line
[4] = test system: Dengue virus 2 New Guinea C; assay: In vitro antiviral screening, Visual (Virus yield reduction); details: Huh7; for SI90: Visual (Virus yield reduction)/Neutral Red (Toxicity); for EC90: Dengue virus, Visual (Virus yield reduction)
Zika MR766 [5] = assay: as above; details: Vero 76
[6] = test system: Dengue virus 2 New Guinea C; assay: In vitro antiviral screening, Neutral Red (Cytopathic effect); details: Huh7; for SI50: Neutral Red (Cytopathic effect/Toxicity); for EC50: Dengue virus, Neutral Red (Cytopathic effect)
Zika MR766 [7] = assay: as above; details: Vero 76

## CN(C)CCCn1c(N)nc2ccc3c(c21)CC(CO)O3 (centres unmarked) [DD041]
[1]; 3 mg/kg IV
  AUC_%Extrap_obs, Mean: 1.88%
  AUC_%Extrap_obs, Mouse 1: 3.73%
  AUC_%Extrap_obs, Mouse 2: 0.927%
  AUC_%Extrap_obs, Mouse 3: 0.993%
  AUClast/D, Mean: 262
  AUClast/D, Mouse 1: 261
  AUClast/D, Mouse 2: 251
  AUClast/D, Mouse 3: 274
  C0, Mean: 1959 ng/mL
  C0, Mouse 1: 2033 ng/mL
  C0, Mouse 2: 1738 ng/mL
  C0, Mouse 3: 2107 ng/mL
  Cl_obs, Mean: 62.5 mL/min/kg
  Cl_obs, Mouse 1: 61.4 mL/min/kg
  Cl_obs, Mouse 2: 65.8 mL/min/kg
  Cl_obs, Mouse 3: 60.3 mL/min/kg
  Vss_obs, Mean: 7.55 L/kg
  Vss_obs, Mouse 1: 5.80 L/kg
  Vss_obs, Mouse 2: 8.48 L/kg
  Vss_obs, Mouse 3: 8.37 L/kg
[1]; 3 mg/kg IV, 24 h
  Plasma concentration, Mouse 1: BLOQ
[1]; Mean, 3 mg/kg IV
  concentration at 0.083 h: 1170 ng/mL
  concentration at 0.25 h: 417 ng/mL
  concentration at 0.5 h: 281 ng/mL
  concentration at 1 h: 161 ng/mL
  concentration at 2 h: 65.7 ng/mL
  concentration at 4 h: 27.4 ng/mL
  concentration at 8 h: 8.4 ng/mL
  AUC(0-inf): 801 ng·h/mL
  AUC(0-t): 786 ng·h/mL
  MRT inf: 2.01 h
[1]; Mean, 3 mg/kg IV, 24 h
  concentration at 24 h: 1.11 ng/mL
[1]; Mouse 1, 3 mg/kg IV
  concentration at 0.083 h: 1250 ng/mL
  concentration at 0.25 h: 470 ng/mL
  concentration at 0.5 h: 322 ng/mL
  concentration at 1 h: 145 ng/mL
  concentration at 2 h: 67.5 ng/mL
  concentration at 4 h: 31.6 ng/mL
  concentration at 8 h: 9.69 ng/mL
  AUC(0-inf): 814 ng·h/mL
  AUC(0-t): 784 ng·h/mL
  MRT inf: 1.57 h
[1]; Mouse 2, 3 mg/kg IV
  concentration at 0.083 h: 1070 ng/mL
  concentration at 0.25 h: 403 ng/mL
  concentration at 0.5 h: 255 ng/mL
  concentration at 1 h: 152 ng/mL
  concentration at 2 h: 66.4 ng/mL
  concentration at 4 h: 28.5 ng/mL
  concentration at 8 h: 6 ng/mL
  AUC(0-inf): 760 ng·h/mL
  AUC(0-t): 753 ng·h/mL
  MRT inf: 2.15 h
[1]; Mouse 2, 3 mg/kg IV, 24 h
  concentration at 24 h: 1.05 ng/mL
[1]; Mouse 3, 3 mg/kg IV
  concentration at 0.083 h: 1190 ng/mL
  concentration at 0.25 h: 377 ng/mL
  concentration at 0.5 h: 267 ng/mL
  concentration at 1 h: 187 ng/mL
  concentration at 2 h: 63.3 ng/mL
  concentration at 4 h: 22 ng/mL
  concentration at 8 h: 9.51 ng/mL
  AUC(0-inf): 829 ng·h/mL
  AUC(0-t): 821 ng·h/mL
  MRT inf: 2.31 h
[1]; Mouse 3, 3 mg/kg IV, 24 h
  concentration at 24 h: 1.17 ng/mL
[1]; T1/2, Mean, 3 mg/kg IV
  half-life: 3.9 h
[1]; T1/2, Mouse 1, 3 mg/kg IV
  half-life: 2.17 h
[1]; T1/2, Mouse 2, 3 mg/kg IV
  half-life: 4.65 h
[1]; T1/2, Mouse 3, 3 mg/kg IV
  half-life: 4.87 h
[2]; CC50, Assay No. 1, Neutral Red (Cytopathic effect/Toxicity) line
  CC50: > 100 µM
[2]; CC50, Assay No. 1, Neutral Red (Toxicity), line of the virus yield reduction assay
  CC50: > 100 µM
[2]; CC50, Assay No. 2, Neutral Red (Cytopathic effect/Toxicity) line
  CC50: 26 µM
[2]; CC50, Assay No. 2, Neutral Red (Toxicity), line of the virus yield reduction assay
  CC50: 26 µM
[3]
  CC50: > 100 µM
Vero 76
  CC50: > 100 µM
[4]; Assay No. 1
  SI90: >10
[4]; Assay No. 2
  SI90: 14
[4]; Huh-7, Assay No. 1
  EC90: 10 µM
[4]; Huh-7, Assay No. 2
  EC90: 1.83 µM
Zika MR766 [5]; Assay No. 3, Visual (Virus yield reduction)/Neutral Red (Toxicity)
  SI90: >5.9
Zika MR766 [5]; Zika virus
  EC90: 17 µM
[6]; Assay No. 1
  SI50: >15
[6]; Assay No. 2
  SI50: 4.6
[6]; Huh-7, Assay No. 1
  EC50: 6.7 µM
[6]; Huh-7, Assay No. 2
  EC50: 5.6 µM
Zika MR766 [7]; Assay No. 3, Neutral Red (Cytopathic effect/Toxicity)
  SI50: >9.1
Zika MR766 [7]; Zika virus
  EC50: 11 µM
